In PubChem BioAssay (NCI):
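Dose response: 5 concentrations. Exposure: 48 h. Format: 96-well plates. Endpoint: linear interpolation; highest concentration if not reached. TGI denotes the concentration required for complete inhibition of growth.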

Tests used:
Experiment in all cases: NCI tumour cell line growth inhibition, 48 h
U251 CNS = system: U251 CNS
SK-MEL-5 melanoma = system: SK-MEL-5 melanoma
RPMI-8226 leukemia = system: RPMI-8226 leukemia
BT-549 breast = system: BT-549 breast
HOP-92 NSCLC = system: HOP-92 NSCLC
MCF7 breast = system: MCF7 breast
SNB-19 CNS = system: SNB-19 CNS
EKVX NSCLC = system: EKVX NSCLC
KM12 colon = system: KM12 colon
A549 NSCLC = system: A549 NSCLC
SK-OV-3 ovarian = system: SK-OV-3 ovarian
OVCAR-4 ovarian = system: OVCAR-4 ovarian

| SMILES | TGI (U251 CNS) [µM] | TGI (SK-MEL-5 melanoma) [µM] | TGI (RPMI-8226 leukemia) [µM] | TGI (BT-549 breast) [µM] | TGI (HOP-92 NSCLC) [µM] | TGI (MCF7 breast) [µM] | TGI (SNB-19 CNS) [µM] | TGI (EKVX NSCLC) [µM] | TGI (KM12 colon) [µM] | TGI (A549 NSCLC) [µM] | TGI (SK-OV-3 ovarian) [µM] | TGI (OVCAR-4 ovarian) [µM] |
| --- | --- | --- | --- | --- | --- | --- | --- | --- | --- | --- | --- | --- |
| Cc1c2c3ccccc3nc-2n(C)c2ccccc12 | 12.7 | 2.2 | 52.7 | 19.3 | 13.1 | 5.98 | 44.5 | 10.3 | 7.91 | 9.19 | 7.22 | – |
| Cc1nc(CC#N)n[nH]1 | > 100 | > 100 | > 100 | > 100 | > 100 | > 100 | > 100 | > 100 | > 100 | > 100 | > 100 | > 100 |
| Cc1ccccc1OC(C)C(=O)NN1C(=O)CSC1c1ccc(Cl)cc1 (stereo not given) | > 93.4 | > 100 | > 61 | 98.9 | > 100 | > 100 | > 100 | > 100 | > 100 | > 100 | > 92.5 | > 100 |
| c1ccc(C(NCC2CCO2)(c2ccccc2)c2ccccc2)cc1 (stereo not given) | 54 | 63.9 | > 100 | 38.7 | 32.8 | 31.7 | 27.6 | 30.8 | 28.8 | 30.6 | 34.2 | 30.2 |
| CC[C@@]1(O)C(=O)OCc2c1cc1n(c2=O)Cc2c-1nc1ccccc1c2/C=N\NC(=O)C1CCCN1 (stereo not given in full) | 11.2 | 2.25 | > 59.7 | > 100 | 21.2 | 18.4 | 2.5 | > 100 | > 44.6 | > 100 | > 100 | > 100 |
| Cc1ccc(NC=O)c(-c2c(N)[nH]c(=S)[nH]c2=O)c1 | – | > 100 | > 100 | > 100 | > 100 | > 100 | > 100 | > 100 | > 100 | > 100 | 91.7 | – |
| CC(C)(C)OC(=O)N(CCCCNC(=O)OCc1ccccc1)CCCNC(=O)OCc1ccccc1 | > 100 | 22.5 | > 100 | > 100 | 99.1 | > 100 | > 100 | > 100 | > 100 | > 100 | > 100 | > 100 |
| CC(C)(C)OC(=O)NC1CC2(C=C(Br)C(=O)C(Br)=C2)OC1=O (stereo not given) | 31.7 | 31.1 | 4.21 | 30.3 | 30.1 | 31.6 | 38.6 | 27.5 | 45.1 | 38.7 | 32.1 | 24.1 |
| O=C(c1nc2ccc([N+](=O)[O-])cc2[nH]c1=O)C(O)c1ccc2c(c1)OCO2 (stereo not given) | > 100 | > 100 | > 100 | > 100 | > 100 | > 100 | > 100 | > 100 | > 93 | > 100 | > 100 | > 100 |
